The record followed here is patent US6271254A, “Pharmaceutical compositions containing R-α-lipoic acid or S-α-lipoic acid as active ingredient” (ASTA Pharma Aktiengesellschaft, priority 1989, dated 2001).

Data set [1] concerns rat. Kind of data set: Randall-Selitto inflammatory pain test in the rat. It is filed as in vivo. The note with it: po, per os; for ED50: 0.5 h, Randall-Selitto test, rat, 50% analgesic activity, read-out: analgesically effective ED50. Here is the method:
Randall-Selitto test (inflammatory pain in the rat)
By analogy with the method according to RANDALL and SELITTO (L. O. Randall and J. Selitto, Arch. int. Pharmacodyn. Vol. 111, pages 409-418 (1957)), rats receive subplantar injections of 0.1 ml of a 20% (in demineralized water) brewer's yeast suspension into the right back paw. 2 1/2 hours thereafter the test substances are administered and 30 minutes thereafter the pain threshold (in grams) is measured as pain in the inflamed paw, using a commercially available algesia meter. The criterion is the defense reaction shown by the animals in pulling the paw away and/or freeing themselves from the research worker's grip. The activity of the substance is measured in the form of the increase in the pain threshold as compared to an untreated control group. The course of the experiment differs from that in the original method in that the substances are only given 21/2 hours after provocation of the edema and not simultaneously therewith. In so doing the intention is to prevent the development of the edema being inhibited by a possible anti-inflammatory activity and masking or feigning analgesia.
The ED50 is determined using the linear regression method. The ED50 here is the dose in mg/kg it which mathematically there is a 50% analgesic activity.

For data set [2], the system named is rat. Kind of data set: carragheen-induced oedema test in the rat. The conditions noted are these: for ED50: 50% inhibition of paw oedema, read-out: anti-inflammatorily active ED50. It is filed as in vivo. Here is the method: Caragheen-induced edema test for anti-inflammatory activity:
The investigation is conducted in carragheen-induced edema of the rat paw after the method of MOERSDORF and co-workers (Arch.int.Pharmacodyn. 192, 111-127 (1971)). The anti-inflammatory activity is, for example, given as inhibition of edema in percent as compared to the untreated control group. Application is oral or intraperitoneal in all experiments. The substance is administered orally or intraperitoneally 1 hour after triggering the inflammation. The ED50 is the dose in mg/kg at which there is 50% inhibition of the paw oedema.

In the next data set the test system is mouse. Nature of the data set: acid writhing pain test in the mouse (acetic acid test). It counts as in vivo. The conditions noted are these: po, per os, 50% inhibition of writhing syndrome, read-out: analgesically active ED50. The text has this: Acetic acid test (writhing test) in the mouse Method: In the acetic acid test after KOSTER et al. (Fed. Proc., Vol. 18, page 412 (1959)) the pain stimulus triggered by an intraperitoneal injection of 1% acetic acid. The pain reaction is expressed in the form of the characteristic stretching of the animals ("writhing syndrome") which continues at irregular time intervals form some time after injection of the acetic acid. The dose-dependent inhibition of the frequency of the stretching movement as compared to an untreated control group is expressed in percent as analgesic activity. Evaluation is by determination type the ED50 (Method of linear regression). The ED50 is the dose in mg/kg at which there is a 50% inhibition of the "writhing syndrome".

Data set [3] is described as follows: analgesic and anti-inflammatory activity compared with the racemate (general statement, no test named). It is filed as in vivo. The note with it: vs racemate.
Data set [4] in a line: analgesic, anti-inflammatory, anti-arthrotic and cytoprotective activity in investigatory models. It counts as in vivo, mouse, rat, chicken. The note with it: in words. An excerpt:
The optical isomers of α-lipoic acid display a good analgesic, anti-inflammatory, anti-arthrotic and cytoprotective activity in, for example, the following investigatory models:
MgSO4 writhing test in the mouse according to GYIRES et al. (Arch.int.pharmacodyn.therap. 267, 131-140 (1984))
Adjuvans arthritis in the rat according to NEWBOULD (Brit.J.Pharmacol. 21, 127-136 (1963))
TPA- or arachidonic acid-induced mouse ear oedema according to YOUNG et al. (J.Invest.Dermatol. 80, 48-52 (1983))
Na-mono-iodazetate-induced arthrosis in rats or chickens according to KALBHEN in: Arthrosis deformans, Eular-Verlag, Basel/Switzerland, 1982
TPA-induced arthrosis in rats according to WEISCHER (Agents and Actions 23, 1/2 (1988))
Intestinal ulcerations in rats according to DEL SOLDATO (Agents and Actions 16, 393-396 (1985))
Colitis-model in the rat according to WEISCHER at al (Agents and Actions, vol. 26, 1/2, page 222 to 223, (1989))
Ethanol-ulcer model in the rat (determination for example of a cytoprotective activity).

A short description of data set [5]: acute toxicity in the mouse (method of LITCHFIELD and WILCOXON). The note with it: in vivo, oral administration. Here is the method: The acute toxicity of R-α-lipoic acid and S-α-lipoic acid in the mouse (expressed as the LD50 mg/kg; method of LITCHFIELD and WILCOXON, J. Pharmacol. Exp Ther. 95, 99 (1949)), is for example in excess of 100 mg/kg in the case of oral administration.

The subject of data set [6] is human immunodeficiency virus HIV (HIV-1, HIV-2). Kind of data set: growth-inhibiting activity against retroviruses, in particular HIV (HIV-1, HIV-2). It counts as cell-based. The note with it: in vitro; in words. An excerpt: 3. Determination of reverse transcriptase in culture supernatant
4. Determination of p24 antigen in culture supernatant
In the case of the in vitro experiments the active ingredient is used, for example in benzyl alcohol as solvent.
The following substrates may, for example, be used for the in vitro investigations of the replication behavior of retroviruses, in particular HIV:
1. Virus-containing RPMI 1640 medium, for example 1X liquid 041-01875 (synthetic culture medium from Gibeo according to Moore, Gerner and Franklin, H. A. (1967), J.A.M.A. 199; 519) in a concentration of 2×10^3 -1×10^4 infectious units (PFU)/ml
2. The cell lines Jurkat Clone E6-1, Sup T1 and HeLa CT4.

[7] abbreviates: po, carragheen-induced oedema, rat, per os.

With `O=C(O)CCCCC1CCSS1` (racemic) [racemate, 1,2-dithiacyclopentane-3-valeric acid, reference compound], the ED50 in the data set on rat [1] was 45.9 mg/kg; in the data set with rat [2] (setting [7]), 49.7 mg/kg; in the data set on mouse, 51.3 mg/kg.

With `O=C(O)CCCC[C@@H]1CCSS1` [R-α-lipoic acid], the “anti-inflammatory activity stronger than that of the racemate (factor)” value in data set [3] stood at 10 factor. Further, in the data set on rat [2] (Rattus norvegicus, po, carragheen-induced oedema test, per os, read-out: minimum anti-inflammatorily effective dose), the minimal effective dose turned out to be 1 mg/kg. Also, in the data set on rat [2] (carragheen-induced oedema, rat, peroral application), the “anti-inflammatory activity superior to that of racemic α-lipoic acid (factor)” value is not below 10 factor. For the same compound, the ED50 in the data set on rat [2] (setting [7]) was found to be 4.9 mg/kg. Further, the “antinociceptive and cytoprotective activity (beside anti-inflammatory and anti-arthritic main activity)” value in data set [4] is listed as “to a lesser extent”. This compound also showed an LD50 in data set [5] of more than 100 mg/kg. Moreover, in data set [6], the “growth-inhibiting activity against retroviruses, in particular HIV (HIV-1, HIV-2)” value is recorded as “growth-inhibiting activity”.

Take `O=C(O)CCCC[C@H]1CCSS1` [S-α-lipoic acid]: the minimal effective dose in the data set on rat [1] (Rattus norvegicus, Randall-Selitto pain test, read-out: minimum analgesically effective dose) was determined as 1 mg/kg. The ED50 in the data set with rat [1] amounted to 7.5 mg/kg; in the data set on mouse, 10.2 mg/kg. Also, in data set [4], the “anti-inflammatory and cytoprotective activity (beside analgesic main activity)” value is given as “to a lesser extent”. The same compound returned an LD50 in data set [5] of more than 100 mg/kg. The “growth-inhibiting activity against retroviruses, in particular HIV (HIV-1, HIV-2)” value in data set [6] was “growth-inhibiting activity”.
